Measured values taken from PMC9127750, “Structure-based design of CDC42 effector interaction inhibitors for the treatment of cancer” (Cell reports, 2022).

System: WM3248 melanoma cells, 486 antibodies
Test: Reverse phase protein arrays (RPPA);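 for RPPA AceCS1.R.V: ratio of treated to vehicle (0 µM) normalized linear protein signal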;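 for RPPA Akt1 pS473.R.V: ratio of treated to vehicle (0 µM) normalized linear protein signal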;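 for RPPA Akt1.R.V: ratio of treated to vehicle (0 µM) normalized linear protein signal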;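 for RPPA Ambra1 pS52.R.C: ratio of treated to vehicle (0 µM) normalized linear protein signal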;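 for RPPA Atg5.R.C: ratio of treated to vehicle (0 µM) normalized linear protein signal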;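 for RPPA Bim.R.V: ratio of treated to vehicle (0 µM) normalized linear protein signal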
Assay type: cell-based, Human
Settings: 10 uM, Average
Description: Pellets were snap frozen in liquid nitrogen and shipped to MD Anderson Cancer Center core RPPA facility for RPPA analysis (Table S5). Three biological replicates for each sample were generated.
Nomenclatures on the RPPA heatmaps: name_of_antibody.species_of_antibody.status_of_antibody. V - antibody validated; C - validation of antibody in progress; Q - antibody nonspecific; E – under evaluation; antibodies raised in M - mouse, G - goat, R - rabbit, or T - rat.

## CN(C)c1cccc(Nc2cc(-c3ccccc3)nc(C3CCNCC3)n2)c1 [ARN22089, N1,N1-dimethyl-N3-(6-phenyl-2-(piperidin-4-yl)pyrimidin-4-yl)benzene-1,3-diamine]
  RPPA ATM.R.V: 0.927
  RPPA ATM_pS1981.R.V: 1.057
  RPPA ATP5A.M.C: 0.974
  RPPA ATP5H.R.V: 1.098
  RPPA ATR.R.V: 1.026
  RPPA ATRX.R.C: 0.906
  RPPA ATR_pS428.R.C: 0.986
  RPPA AceCS1.R.V: 0.979
  RPPA Akt1.R.V: 0.907
  RPPA Akt1_pS473.R.V: 0.954
  RPPA Akt2.R.V: 0.941
  RPPA Akt2_pS474.R.C: 1.021
  RPPA Akt.R.V: 0.867
  RPPA Akt_pT308.R.V: 0.981
  RPPA Ambra1_pS52.R.C: 1.030
  RPPA Atg3.R.V: 0.962
  RPPA Atg4B.R.C: 0.898
  RPPA Atg5.R.C: 0.891
  RPPA Atg7.R.V: 0.851
  RPPA Aurora.A.R.C: 1.056
  RPPA Aurora.ABC_pT288_pT232_pT198.R.C: 1.162
  RPPA Axl.R.V: 0.783
  RPPA B7.H4.R.C: 0.993
  RPPA B.Raf.R.C: 0.898
  RPPA B.Raf_pS445.R.V: 0.944
  RPPA BAP1.M.V: 0.990
  RPPA BCL2A1.R.V: 1.335
  RPPA BMK1.Erk5_pT218_Y220.R.V: 0.987
  RPPA BRCA1.M.C: 1.014
  RPPA BRD4.R.V: 1.015
  RPPA Bax.R.V: 0.964
  RPPA Bcl2.R.C: 1.027
  RPPA Bcl.xL.R.V: 1.001
  RPPA BiP.GRP78.M.C: 1.017
  RPPA Bid.R.C: 0.983
  RPPA Bim.R.V: 0.937
  RPPA DNMT1.R.V: 1.022
  RPPA DRP1.R.V: 0.982
  RPPA DUSP4.R.V: 0.898
  RPPA DUSP6.R.C: 0.937
  RPPA Dvl3.R.V: 0.985
  RPPA E.Cadherin.R.V: 1.055
  RPPA EGFR.R.V: 0.930
  RPPA EGFR_pY1068.R.C: 1.016
  RPPA EGFR_pY1173.R.V: 0.991
  RPPA EMA.M.C: 1.130
  RPPA ENY2.M.C: 1.020
  RPPA ER.a.R.V: 0.940
  RPPA ER.a_pS118.R.V: 0.975
  RPPA ERCC5.R.C: 0.879
  RPPA EVI1.R.V: 1.063
  RPPA Elk1_pS383.R.C: 0.992
  RPPA Enolase.1.R.V: 0.999
  RPPA EphA2.R.V: 1.002
  RPPA EphA2_pS897.R.C: 1.008
  RPPA EphA2_pY588.R.C: 0.983
  RPPA Erk5.R.V: 0.909
  RPPA FABP5.R.C: 1.006
  RPPA FAK.R.C: 0.977
  RPPA FAK_pY397.R.V: 1.056
  RPPA FANCD2.R.V: 1.010
  RPPA FASN.R.V: 0.855
  RPPA FGF.basic.R.C: 0.941
  RPPA FN14.R.C: 1.032
  RPPA FOXM1.R.V: 1.022
  RPPA FOXO3.R.V: 1.030
  RPPA FRS2.alpha_pY196.R.V: 1.286
  RPPA FTO.R.V: 1.004
  RPPA Fibronectin.R.V: 0.843
  RPPA FoxO3a_pS318_S321.R.C: 1.028
  RPPA G6PD.R.V: 1.065
  RPPA GATA3.M.V: 1.016
  RPPA GATA6.R.V: 1.046
  RPPA GCLC.R.C: 0.968
  RPPA GCLM.R.V: 1.026
  RPPA GCN5L2.R.V: 0.929
  RPPA GGPS1.M.V: 1.006
  RPPA GRB2.R.V: 0.910
  RPPA GRB7.R.V: 0.970
  RPPA GSK.3B.R.C: 0.917
  RPPA Gab2.R.V: 0.984
  RPPA Gli1.R.C: 1.007
  RPPA Gli3.R.C: 0.971
  RPPA Glucocorticoid.Receptor.R.V: 1.081
  RPPA Glutamate.D1.2.R.V: 1.054
  RPPA Glutaminase.R.C: 0.935
  RPPA Granzyme.B.R.V: 0.974
  RPPA Grp75.R.C: 1.080
  RPPA Gys.R.V: 0.978
  RPPA Gys_pS641.R.V: 1.007
  RPPA H2AX_pS139.R.C: 0.966
  RPPA HER2.M.V: 1.022
  RPPA HER3.R.V: 0.985
  RPPA HER3_pY1289.R.C: 0.975
  RPPA HES1.R.V: 0.990
  RPPA Heregulin.R.V: 0.902
  RPPA X4E.BP1.R.V: 0.842
  RPPA X4E.BP1_pS65.R.V: 1.009
  RPPA X4E.BP1_pT37_T46.R.V: 1.014
  RPPA X14.3.3.zeta.R.V: 1.029
  RPPA X14.3.3εM.C: 1.000
  RPPA X53BP1.R.V: 0.942
  RPPA b.Actin.R.C: 1.019
  RPPA b.Catenin_pT41_S45.R.V: 1.005
  RPPA c.Abl.R.V: 1.077
  RPPA c.Abl_pY412.R.C: 0.962
  RPPA c.IAP2.R.C: 1.022
  RPPA eIF4E.R.V: 0.979
  RPPA eIF4E_pS209.R.V: 1.021
  RPPA eIF4G.R.C: 0.929
  RPPA level HLA.DQA1.R.V: 1.033
  RPPA level HLA.DR.DP.DQ.DX.R.C: 0.982
  RPPA level HMHA1.R.V: 0.975
  RPPA level HSP27.M.C: 1.029
  RPPA level HSP27_pS82.R.V: 0.988
  RPPA level HSP70.R.C: 0.942
  RPPA level Hexokinase.II.R.V: 0.989
  RPPA level Hif.1αR.C: 0.977
  RPPA level Histone.H3.R.V: 0.887
  RPPA level IDO.R.C: 1.004
  RPPA level IGF1R_pY1135_Y1136.R.V: 0.943
  RPPA level IGFBP2.R.V: 0.781
  RPPA level IGFBP3.M.V: 0.976
  RPPA level IGFRb.R.C: 0.929
  RPPA level IL.6.R.C: 0.956
  RPPA level IMP3.R.C: 1.001
  RPPA level IR.b.R.C: 1.049
  RPPA level IRF.1.R.V: 0.861
  RPPA level IRS1.R.V: 0.974
  RPPA level IRS2.R.C: 0.998
  RPPA level JAB1.M.C: 1.013
  RPPA level JNK2.R.V: 1.853
  RPPA level JNK_pT183_Y185.R.C: 0.981
  RPPA level Jagged1.R.V: 0.989
  RPPA level Jak2.R.V: 0.961
  RPPA level KAP1.R.V: 0.913
  RPPA level KEAP1.R.V: 0.975
  RPPA level LC3A.B.R.C: 0.954
  RPPA level LCN2.R.V: 1.252
  RPPA level LDHA.R.C: 1.005
  RPPA level LRP6_pS1490.R.V: 0.929
  RPPA level Lck.R.V: 0.974
  RPPA level MACC1.R.V: 1.049
  RPPA level MAPK_pT202_Y204.R.C: 0.956
  RPPA level MCT4.R.V: 0.820
  RPPA level MDM2_pS166.R.V: 1.004
  RPPA level MEK1.R.V: 1.435
  RPPA level MEK1_pS217_S221.R.V: 0.992
  RPPA level MEK2.R.V: 0.978
  RPPA level MERIT40.R.C: 0.950
  RPPA level MERIT40_pS29.R.V: 1.020
  RPPA level METTL3.R.V: 1.051
  RPPA level MIF.R.C: 1.063
  RPPA level MIG6.R.V: 1.022
  RPPA level MLH1.M.V: 0.972
  RPPA level MLKL.R.V: 0.916
  RPPA level MMP2.R.V: 0.984
  RPPA level MMP14.R.V: 1.009
  RPPA level MRAP.R.C: 1.048
  RPPA level MSH2.R.C: 1.016
  RPPA level MSH6.R.C: 0.997
  RPPA level MSI2.R.C: 0.997
